Results reported in PubChem BioAssay AID2132 (NMMLSC, 2009).
Peptide text beside a SMILES is read from it. * marks the point of attachment. Cbz = O=C(OCc1ccccc1)*

Assay: yeast 26S proteasome protease site inhibitors – biochemical, fluorogenic peptides, secondary, counter-screen for 26S proteasome disassembly project (AID 2132)
Settings: fluorogenic peptide cleavage rate, peptide cleavage rate with compound, at 100 µM, stronger effect = lower value

| Compound | cleavage rate (fluorescence units/min) (with Ac-RLR-amc) | cleavage rate (fluorescence units/min) (with Ac-nLPnLD-amc) | cleavage rate (fluorescence units/min) (with Suc-LLVY-amc) |
| --- | --- | --- | --- |
| CC(C)C[C@@H](C=O)NC(=O)[C@H](CC(C)C)NC(=O)[C@H](CC(C)C)NC(=O)OCc1ccccc1 (Cbz-Leu-Leu-Leu-aldehyde) | 0.41 | 0.11 | 0 |
| CC(=O)N1C(=O)C(=C2C=C(C)OC(C)=C2)c2ccccc21 | 0.32 | 0.2 | 0.52 |
